Like-named read-outs stand apart in the source and are kept apart here.
Tests used:
[1] = system: acute lung injury plus hyperthermia, CD-1 mice; format: in vivo; conditions: for tolerability: mouse, in vivo
Procedure: This example provides results of a second modified acute lung injury plus hyperthermia study to evaluate the effect of denatonium acetate. The same procedure was used as in Example 7. Starting three days before the induction of lung injury, groups of six CD-1 mice each were treated prophylactically with vehicle or 92.4 mg/kg denatonium acetate (DA) (administered by twice-daily (BID) oral gavage (PO)) or with 3 mg/kg DA (administered by once-daily (QD) intraperitoneal (IP) injection). On Day 0, lung injury was induced by intratracheal instillation with 50 μL of 1 mg/mL bacterial lipopolysaccharide (LPS), and hyperthermia was induced by placing the animals in a 39° C. incubator. On Day 1 (i.e., 24 hours after induction), animals were euthanized and bronchoalveolar lavage fluid (BALF) was collected. The BALF specimens were assessed for cytokine concentrations (using a multiplex bead-based assay), and protein levels, and neutrophil counts (by fluorescence-activated cell sorting (FACS)). Additionally, lungs were collected, fixed, stained with Masson's trichrome, and assessed histologically. Three days of repeat PO dosing with 92.4 mg/kg DA (BID) or IP dosing with 3 mg/kg DA (QD) was well-tolerated in female CD-1 mice. […] This inference is consistent with the observation that deaths were seen both with vehicle and test article dosing. No other adverse clinical observations were noted during 3 days of test article administration. […] IL-13, MIP-1β, MCSF, and MIG. […] Thus, BID PO treatment with 92.4 mg/kg DA or QD IP injection with 3 mg/kg DA provided significant attenuation of the accumulation of multiple cytokines in the lungs of this mouse model of acute lung injury, along with nominal activity in counteracting neutrophil infiltration and lung damage in these animals.

[2] = system: inflammatory biomarkers in tested animals; test: biomarkers compared across many studies (Table 2); format: in vivo; conditions: PO 92.4 mg/kg DA BID
Procedure: The many examples provided herein show the effect of the denatonium salts on various in vivo and in vitro models of various disease indications. In addition, blood samples were taken from the tested (and control) animals and various biomarkers were measured and compared. FIGS. 70A-C show graphs comparing biomarkers across many studies. […] It should be noted that clusters of multiple biomarkers predict effectiveness for each disease indication and that grouping is shown in FIG. 71.

[3] = system: DSS-induced colitis in mice; test: dextran sulfate sodium (DSS)-induced colitis in mice; format: in vivo, mouse
Description: This example provides the results of an in vivo study in a dextran sulfate sodium (DSS)-induced colitis in mice model. Inflammatory bowel diseases (IBD), mainly comprising ulcerative colitis and Crohn's Disease, are complex and multifactorial diseases with unknown etiology. To study human IBD mechanistically, a number of murine models of colitis have been developed. These models are tools to decipher underlying mechanisms of IBD pathogenesis as well as to evaluate potential therapeutics. […] Moreover, many existing IBD-approved drugs have been studied in this model to allow a comparison of new potential drug compounds as compared with existing drugs with approved IBD indications. […] mice were divided into 5 groups of 3-10 mice, provided with standard mouse chow diet ad libitum, and housed up to 5 per cage. Dexamethasone 21-phosphate disodium salt (DMS; Alfa Aesar Catalog #J64083-1G, Lot R02F035) (was used as a positive control. Hemoccult kits were obtained from Beckman (Hemoccult SENSA kit). Dextran sodium sulfate (DSS) reagent grade (MPI Catalog #160110, Lot #6046H, MW 36,000-50,000, CAS 9011-18-1) was supplemented in the water of certain groups to induced IBD-like symptoms. On day −3 treatment began prior to DSS delivery. On day 1 all mice were pre-weighed and given fresh 4-5% DSS in water every day for 5 days and water is then given for the remainder of the study to elicit disease. An additional control group was given water (no DSS) for the duration of the study (10 days). Body weight was measured daily, fecal blood status (hemoccult) was measured 3X per week, fecal consistency 3× per week and general health determined daily. Mice were sacrificed on day 10 and serum obtained for cytokine analysis and colon length and weight determined. There were two control groups of water only and DSS without drug treatment. There were two treatment groups at 69.3 mg/kg (n=10) bid and 23.1 mg/kg bid (n=10).

[4] = IP 3 mg/kg QD, compared to vehicle
[5] = oral 92.4 mg/kg BID, compared to vehicle
[6] = high-dose of DA, no significant difference observed

SMILES: CC(=O)[O-].CC[N+](CC)(CC(=O)Nc1c(C)cccc1C)Cc1ccccc1 [DA, denatonium acetate]
- BALF neutrophil counts (by FACS assay) ([1]; IP 3 mg/kg QD): nominal decreases
- BALF protein concentrations ([1]; IP 3 mg/kg QD): nominal (but nonsignificant) changes
- severity of lung pathology (by histological scoring) ([1]; IP 3 mg/kg QD): nominal decreases in the severity
- BALF concentration of G-CSF [1, 4]: significant decreases
- BALF concentration of IL2 [1, 4]: significant decreases
- BALF concentration of IL-3 [1, 4]: significant decreases
- BALF concentration of IL-4 [1, 4]: significant decreases
- BALF concentration of IL-13 [1, 4]: significant decreases
- BALF concentration of IP-10 [1, 4]: significant decreases
- BALF concentration of M-CSF [1, 4]: significant decreases
- BALF concentration of MCP-1 [1, 4]: significant decreases
- BALF concentration of MIG [1, 4]: significant decreases
- BALF concentration of eotaxin [1, 4]: significant decreases
- tolerability ([1]; ip, 3 mg/kg): well-tolerated
- tolerability ([1]; po, 92.4 mg/kg): well-tolerated
- BALF neutrophil counts (by FACS assay) ([1]; oral 92.4 mg/kg BID): nominal decreases
- BALF protein concentrations ([1]; oral 92.4 mg/kg BID): nominal (but nonsignificant) changes
- severity of lung pathology (by histological scoring) ([1]; oral 92.4 mg/kg BID): nominal decreases in the severity
- BALF concentration of IL-2 [1, 5]: significant decreases
- BALF concentration of IL-3 [1, 5]: significant decreases
- BALF concentration of IL-10 [1, 5]: significant decreases
- BALF concentration of IL-13 [1, 5]: significant decreases
- BALF concentration of MCSF [1, 5]: significant decreases
- BALF concentration of MIG [1, 5]: significant decreases
- BALF concentration of MIP-1β [1, 5]: significant decreases
- Eotaxin, Decreased Percentage Compared to Vehicle [2]: −18.6%
- G-CSF, Decreased Percentage Compared to Vehicle [2]: −37.5%
- GM-CSF, Decreased Percentage Compared to Vehicle [2]: −2.3%
- IFN-γ, Decreased Percentage Compared to Vehicle [2]: −37.3%
- IL-1α, Decreased Percentage Compared to Vehicle [2]: −18.2%
- IL-1β, Decreased Percentage Compared to Vehicle [2]: −12.0%
- IL-3, Decreased Percentage Compared to Vehicle [2]: −74.5%
- IL-5, Decreased Percentage Compared to Vehicle [2]: −29.1%
- IL-6, Decreased Percentage Compared to Vehicle [2]: −34.2%
- IL-10, Decreased Percentage Compared to Vehicle [2]: −92.5%
- IL-12 (p70), Decreased Percentage Compared to Vehicle [2]: −28.0%
- IL-17, Decreased Percentage Compared to Vehicle [2]: −21.2%
- KC, Decreased Percentage Compared to Vehicle [2]: −21.6%
- LIX, Decreased Percentage Compared to Vehicle [2]: −7.3%
- MCP-1, Decreased Percentage Compared to Vehicle [2]: −24.2%
- MIG, Decreased Percentage Compared to Vehicle [2]: −13.2%
- MIP-1α, Decreased Percentage Compared to Vehicle [2]: −3.4%
- MIP-1β, Decreased Percentage Compared to Vehicle [2]: −10.2%
- MIP-2, Decreased Percentage Compared to Vehicle [2]: −76.3%
- RANTES, Decreased Percentage Compared to Vehicle [2]: −20.6%
- body weight at day 10 ([3]; 69.3 mg/kg DA, BID, vs vehicle): significant effect against DSS-induced body weight loss
- combined fecal score during the study period ([3]; DA 23.1 and 69.3 mg/kg bid): significant main effect
- fecal consistency score during the study period ([3]; DA 23.1 and 69.3 mg/kg bid): significant main effect
- fecal occult blood scores during the study period ([3]; DA 23.1 and 69.3 mg/kg bid): significant main effect
- body weight changes during the study period ([3]; DA 23.1 and 69.3 mg/kg bid, P=0.0052): significant main effect
- colon length at day 10 [3, 6]: could counteract DSS-induced decrease
- colon weight at day 10 [3, 6]: could counteract DSS-induced decrease
- spleen weight at day 10 ([3]; high-dose of DA, no significant effect observed): trend to counteract DSS-induced spleen weight loss

From patent US20220193013A1, “Pharmaceutical Composition for Treatment or Prevention of Multiple Inflammatory Disorders” (priority 2020, published 2022)
